Key:
Format in all cases: in vivo
[1] = test system: Vetch aphid (Megoura viciae); experiment: Activity against Vetch aphid (sprayed bean leaf disks); conditions: foliar, 144 h, 2500 ppm solution in 1:3 DMSO:water, leaf disks sprayed with 2.5 μl, adult aphids, 6 days, untreated controls 0%
Procedure: 4. Activity against Vetch aphid (Megoura viciae)
The active compounds were formulated as a 2500 ppm solution in 1:3 DMSO:water. Bean leaf disks were placed into microtiterplates filled with 0.8% agar-agar and 2.5 ppm OPUS™. The leaf disks were sprayed with 2.5 μl of the test solution and 5 to 8 adult aphids were placed into the microtiterplates which were then closed and kept at 22-24° C. and 35-45% under fluorescent light for 6 days. Mortality was assessed on the basis of vital, reproduced aphids. Tests were replicated 2 times.

[2] = test system: Boll weevil (Anthonomus grandis); experiment: Activity against Boll weevil (eggs sprayed in microtiterplates); conditions: 2500 ppm solution in 1:3 DMSO:water, eggs sprayed with 20 μl, 3 to 5 days, untreated controls 0%
Procedure: 1. Activity against Boll weevil (Anthonomus grandis)
The active compounds were formulated as a 2500 ppm solution in 1:3 DMSO:water. 10 to 15 eggs were placed into microtiterplates filled with 2% agar-agar in water and 300 ppm formaline. The eggs were sprayed with 20 μl of the test solution, the plates were sealed with pierced foils and kept at 24-26° C. and 75-85% humidity with a day/night cycle for 3 to 5 days. Mortality was assessed on the basis of the remaining unhatched eggs or larvae on the agar surface and/or quantity and depth of the digging channels caused by the hatched larvae. Tests were replicated 2 times.

[3] = test system: yellowfever mosquito (Aedes aegyptii); experiment: Activity via glass contact (treated glass vials); conditions: 10 ppm in acetone, 0.5 ml per glass vial, 22° C., untreated controls 0%
From the text: 9. Activity against Argentine ant (Linepithema humile), harvester ant (Pogonomyrmex californicus), acrobat ant (Crematogaster spp.), carpenter ant (Camponotus floridanus), fire ant (Solenopsis invicta), house fly (Musca domestica), stable fly (Stomoxys calcitrans), flesh fly (Sarcophaga sp.), yellowfever mosquito (Aedes aegyptii), house mosquito (Culex quinquefasciatus), malaria mosquito (Anopheles albimanus), German cockroach (Blattella Germanica), cat flea (Ctenocephalides felis), and brown dog tick (Rhipicephalus sanguineus) via glass contact
Glass vials were treated with 0.5 ml of a solution of 10 ppm of the active ingredient in acetone and allowed to dry. Insects or ticks were placed into each vial together with some food and moisture supply.

| SMILES | mortality at 2500 ppm [1] | mortality at 2500 ppm [2] | mortality at 10 ppm [3] |
| --- | --- | --- | --- |
| CN(C(=O)CC(C#N)(C#N)CCC(F)(F)F)C(C)(C)C [I-1, 3,3-dicyano-6,6,6-trifluoro-hexanoic acid tert-butyl-methyl-amide] | > 75% | > 75% |  |
| CN(C(=O)CC(C#N)(C#N)CCC(F)(F)F)C(C)(C)C#N [I-2, 3,3-dicyano-6,6,6-trifluoro-hexanoic acid (cyano-dimethyl-methyl)-methyl-amide] |  |  | > 75% |

Reference: patent publication US20080227635A1, “Dicyano Alkanoic Acid Amides for Combating Animal Pests” (BASF Aktiengesellschaft, priority 2005, published 2008)
